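GI50 marks 50% less growth. TGI: concentration producing complete growth inhibition.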
Tests used:
Assay in all cases: growth of human tumour cells (NCI), 384-well format
MALME-3M melanoma = system: MALME-3M melanoma
SR leukemia = system: SR leukemia
TK-10 renal = system: TK-10 renal
786-0 renal = system: 786-0 renal
LOX IMVI melanoma = system: LOX IMVI melanoma
DU-145 prostate = system: DU-145 prostate
HCC-2998 colon = system: HCC-2998 colon
SW-620 colon = system: SW-620 colon
SNB-75 CNS = system: SNB-75 CNS
M14 melanoma = system: M14 melanoma
MDA-MB-435 melanoma = system: MDA-MB-435 melanoma
MCF7 breast = system: MCF7 breast
UO-31 renal = system: UO-31 renal
SK-MEL-5 melanoma = system: SK-MEL-5 melanoma
MDA-MB-231 breast = system: MDA-MB-231 breast
OVCAR-8 ovarian = system: OVCAR-8 ovarian
CAKI-1 renal = system: CAKI-1 renal
HOP-62 NSCLC = system: HOP-62 NSCLC
ACHN renal = system: ACHN renal
OVCAR-4 ovarian = system: OVCAR-4 ovarian
A549 NSCLC = system: A549 NSCLC
HCT-15 colon = system: HCT-15 colon
UACC-62 melanoma = system: UACC-62 melanoma
NCI-H226 lung = system: NCI-H226 lung
SF-268 CNS = system: SF-268 CNS
KM12 colon = system: KM12 colon
NCI-H322M lung = system: NCI-H322M lung
SNB-19 CNS = system: SNB-19 CNS
BT-549 breast = system: BT-549 breast

Structure (SMILES): O=C(C1CC1)N1CC[C@@H](Cc2n[nH]c(=O)n2-c2ccc(-c3ccc4occc4c3)cc2)C1
- TGI (MALME-3M melanoma): 96.6 µM
- GI50 (SR leukemia): 24.6 µM
- TGI (SR leukemia): 64.4 µM
- GI50 (TK-10 renal): 21.7 µM
- TGI (TK-10 renal): 60.1 µM
- GI50 (786-0 renal): 25.6 µM
- TGI (786-0 renal): > 100 µM
- GI50 (LOX IMVI melanoma): 16.9 µM
- TGI (LOX IMVI melanoma): 38.6 µM
- GI50 (DU-145 prostate): 35.3 µM
- TGI (DU-145 prostate): > 100 µM
- GI50 (HCC-2998 colon): 25.5 µM
- TGI (HCC-2998 colon): > 100 µM
- GI50 (SW-620 colon): 57.6 µM
- TGI (SW-620 colon): > 100 µM
- GI50 (SNB-75 CNS): 34.8 µM
- TGI (SNB-75 CNS): > 100 µM
- GI50 (M14 melanoma): 60.9 µM
- TGI (M14 melanoma): > 100 µM
- GI50 (MDA-MB-435 melanoma): 31.2 µM
- TGI (MDA-MB-435 melanoma): > 100 µM
- GI50 (MCF7 breast): 19.9 µM
- TGI (MCF7 breast): 92.4 µM
- GI50 (UO-31 renal): 14.9 µM
- TGI (UO-31 renal): > 100 µM
- GI50 (SK-MEL-5 melanoma): 15.7 µM
- TGI (SK-MEL-5 melanoma): 29.6 µM
- GI50 (MDA-MB-231 breast): 39.6 µM
- TGI (MDA-MB-231 breast): > 100 µM
- GI50 (OVCAR-8 ovarian): 36.4 µM
- TGI (OVCAR-8 ovarian): > 100 µM
- GI50 (CAKI-1 renal): 32.4 µM
- TGI (CAKI-1 renal): > 100 µM
- GI50 (HOP-62 NSCLC): 19.1 µM
- TGI (HOP-62 NSCLC): 75.7 µM
- GI50 (ACHN renal): 24.6 µM
- TGI (ACHN renal): > 100 µM
- GI50 (OVCAR-4 ovarian): 33.3 µM
- TGI (OVCAR-4 ovarian): > 100 µM
- GI50 (A549 NSCLC): 23.4 µM
- TGI (A549 NSCLC): > 100 µM
- GI50 (HCT-15 colon): 34.3 µM
- TGI (HCT-15 colon): > 100 µM
- GI50 (UACC-62 melanoma): 34.2 µM
- TGI (UACC-62 melanoma): > 100 µM
- GI50 (NCI-H226 lung): 18.5 µM
- TGI (NCI-H226 lung): 58.8 µM
- GI50 (SF-268 CNS): 26 µM
- TGI (SF-268 CNS): > 100 µM
- GI50 (KM12 colon): 39.6 µM
- TGI (KM12 colon): > 100 µM
- GI50 (NCI-H322M lung): 36.2 µM
- TGI (NCI-H322M lung): > 100 µM
- GI50 (SNB-19 CNS): 50.1 µM
- TGI (SNB-19 CNS): > 100 µM
- GI50 (BT-549 breast): 13.3 µM
- TGI (BT-549 breast): 72.4 µM

From PubChem BioAssay (NCI)
